From patent publication US11161856B2 (H. Lundbeck A/S, priority 2017, dated 2021)

How the values were obtained:
Format in all cases: biochemical
[1] = target: T1, MGLL (Mus musculus, UniProt O35678); assay: In vitro competitive activity-based protein profiling, mouse brain proteome (MGLL); conditions: concentration not given (μM)
T1 construct: Brain; from tissue; host or cells: mouse brain proteome
T1 sequence (O35678 1-303): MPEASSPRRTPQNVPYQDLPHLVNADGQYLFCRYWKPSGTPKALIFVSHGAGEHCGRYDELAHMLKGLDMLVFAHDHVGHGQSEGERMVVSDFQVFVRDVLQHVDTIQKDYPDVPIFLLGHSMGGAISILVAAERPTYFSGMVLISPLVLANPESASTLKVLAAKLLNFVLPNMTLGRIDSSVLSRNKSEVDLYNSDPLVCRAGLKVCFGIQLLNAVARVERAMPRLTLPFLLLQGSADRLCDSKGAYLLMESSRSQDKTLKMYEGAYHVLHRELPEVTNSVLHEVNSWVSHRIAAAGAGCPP

[2] = target: T2, MAGL (Homo sapiens, UniProt Q99685); assay: In vitro competitive activity-based protein profiling (FP-Rh or HT-01 probe, gel-based); conditions: concentration not given (μM); for % Inh MGLL PC3 (Human, μM): PC3 cell proteome
T2 construct: Proteomes (human prefrontal cortex or cell membrane fractions); from tissue
T2 sequence (Q99685 1-303): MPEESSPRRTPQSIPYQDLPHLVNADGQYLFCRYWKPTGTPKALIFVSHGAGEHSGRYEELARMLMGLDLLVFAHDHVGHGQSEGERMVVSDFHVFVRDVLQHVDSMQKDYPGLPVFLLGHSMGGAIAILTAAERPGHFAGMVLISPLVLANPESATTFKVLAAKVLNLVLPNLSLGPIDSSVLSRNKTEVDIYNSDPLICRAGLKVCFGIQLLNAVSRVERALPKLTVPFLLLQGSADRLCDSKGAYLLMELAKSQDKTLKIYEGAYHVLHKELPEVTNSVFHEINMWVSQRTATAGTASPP
In short: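 Human prefrontal cortex or cell membrane proteomes (1.0 mg/mL total protein) were preincubated with varying inhibitor concentrations for 30 min at 37° C. FP-Rh or HT-01 probe (50 μM DMSO stock) was then added for 30 min at room temperature, and samples were quenched in SDS loading buffer and resolved by SDS-PAGE.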

[3] = target: T3, ABHD6 (Mus musculus, UniProt Q8R2Y0); assay: In vitro competitive activity-based protein profiling, mouse brain proteome (ABHD6); conditions: mouse brain proteome; concentration not given (μM)
T3 construct: Brain; from tissue; host or cells: mouse brain proteome
T3 sequence (Q8R2Y0 1-336): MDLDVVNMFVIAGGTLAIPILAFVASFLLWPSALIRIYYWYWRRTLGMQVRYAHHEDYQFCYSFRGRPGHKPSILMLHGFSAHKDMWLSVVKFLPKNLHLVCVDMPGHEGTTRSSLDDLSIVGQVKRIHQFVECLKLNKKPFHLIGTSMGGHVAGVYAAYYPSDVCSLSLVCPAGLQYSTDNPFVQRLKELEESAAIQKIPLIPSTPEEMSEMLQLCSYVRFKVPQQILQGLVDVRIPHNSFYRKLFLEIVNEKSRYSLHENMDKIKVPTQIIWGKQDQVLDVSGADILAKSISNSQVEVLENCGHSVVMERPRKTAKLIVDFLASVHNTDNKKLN
Method: [The source words this procedure for another target and reports this target under the same test.] In Vitro Competitive Activity-Based Protein Profiling.
Proteomes (human prefrontal cortex or cell membrane fractions) (50 μL, 1.0 mg/mL total protein concentration) were preincubated with varying concentrations of inhibitors at 37° C. After 30 min, FP-Rh or HT-01 (1.0 μL, 50 μM in DMSO) was added and the mixture was incubated for another 30 min at room temperature. Reactions were quenched with SDS loading buffer (15 μL-4×) and run on SDS-PAGE.

% Inh MGLL Brain (Mouse, μM) [1] | % Inh MGLL PC3 (Human, μM) [2] | % Inh ABHD6 Brain (Mouse, μM) [3] | % Inh MGLL PFC (Human, μM) ([2]; prefrontal cortex (PFC) proteome) | SMILES
### (### is ≥75%) | ### (### is ≥75%) | # (# is ≤25%) | – | CN(Cc1ccc(C(F)(F)F)cc1C1(C(=O)O)CCCC1)C1(C)CCN(C(=O)OC(C(F)(F)F)C(F)(F)F)CC1 [Example 133, l-(2-{[(1-{[(1,1,1,3,3,3-Hexafluoropropan-2-yl)oxy]carbonyl}-4-methylpiperidin-4-yl)(methyl)amino]methyl}-5-(trifluoromethyl)phenyl)cyclop entane-1-carboxylic acid]
### (### is ≥75%) | ### (### is ≥75%) | # (# is ≤25%) | – | O=C(OC(C(F)(F)F)C(F)(F)F)N1CCC2(CCCN2Cc2cc(Cl)cc(C3(C(=O)O)CCCC3)c2)CC1 [Example 134, l-{3-Chloro-5-[(8-{[(1,1,1,3,3,3-hexafluoropropan-2-yl)oxy]carbonyl}-1,8-diazaspiro[4.5]decan-1-yl)methyl]phenyl}cyclopentane-1-carboxylic acid]
### (### is ≥75%) | ### (### is ≥75%) | ### (### is ≥75%) | – | CN(Cc1ccc(Cl)cc1N1CCC(C(=O)O)CC1)C1(C)CCN(C(=O)OC(C(F)(F)F)C(F)(F)F)CC1 [Example 135, l-(5-Chloro-2-(((1-(((1,1,1,3,3,3-hexafluoropropan-2-yl)oxy)carbonyl)-4-methylpiperidin-4-yl)(methyl)amino)methyl)phenyl)piperidine-4-carboxylic acid]
### (### is ≥75%) | ### (### is ≥75%) | # (# is ≤25%) | – | CN(Cc1ccc(C(F)(F)F)cc1OCC(=O)O)C1(C)CCN(C(=O)OC(C(F)(F)F)C(F)(F)F)CC1 [Example 136, 2-(2-(((1-(((1,1,1,3,3,3-Hexafluoropropan-2-yl)oxy)carbonyl)-4-methylpiperidin-4-yl)(methyl)amino)methyl)-5-(trifluoromethyl)phenoxy)acetic acid]
### (### is ≥75%) | ### (### is ≥75%) | # (# is ≤25%) | – | CN(Cc1ccc(C(F)(F)F)cc1CN1CCC(C(=O)O)CC1)C1(C)CCN(C(=O)OC(C(F)(F)F)C(F)(F)F)CC1 [Example 137, l-(2-(((1-(((1,1,1,3,3,3-Hexafluoropropan-2-yl)oxy)carbonyl)-4-methylpiperidin-4-yl)(methyl)amino)methyl)-5-(trifluoromethyl)benzyl)piperidine-4-carboxylic acid]
### (### is ≥75%) | ### (### is ≥75%) | ### (### is ≥75%) | – | CN(Cc1cc(C(F)(F)F)cc(C2(C(=O)O)CCCC2)c1)C1(C)CCN(C(=O)OC(C(F)(F)F)C(F)(F)F)CC1 [Example 138, l-(3-{[(1-{[(1,1,1,3,3,3-Hexafluoropropan-2-yl)oxy]carbonyl}-4-methylpiperidin-4-yl)(methyl)ainino]methyl}-5-(trifluoromethyl)phenyl)cyclop entane-1-carboxylic acid]
### (### is ≥75%) | – | ## (## is between 25 and 75%) | ### (### is ≥75%) | CN(Cc1cc(N2CCOC(C)(C(=O)O)C2)cc(C(F)(F)F)c1)C1(C)CCN(C(=O)OC(C(F)(F)F)C(F)(F)F)CC1 (stereo not drawn) [Example 139, 4-(3-(((1-(((1,1,1,3,3,3-Hexafluoropropan-2-yl)oxy)carbonyl)-4-methylpiperidin-4-yl)(methyl)amino)methyl)-5-(trifluoromethyl)phenyl)-2-methylmorpholine-2-carboxylic acid]
### (### is ≥75%) | ### (### is ≥75%) | ### (### is ≥75%) | – | CC(C)(C#Cc1cc(CN2CCCC23CCN(C(=O)OC(C(F)(F)F)C(F)(F)F)CC3)cc(C(F)(F)F)c1)C(=O)O [Example 140, 4-{3-[(8-{[(1,1,1,3,3,3-Hexafluoropropan-2-yl)oxy]carbonyl}-1,8-diazaspiro[4.5]decan-1-yl)methyl]-5-(trifluoromethyl)phenyl}-2,2-dimethylbut-3-ynoic acid]
### (### is ≥75%) | ### (### is ≥75%) | # (# is ≤25%) | – | CN(Cc1ccccc1C1(C(=O)O)CCCC1)C1(C)CCN(C(=O)OC(C(F)(F)F)C(F)(F)F)CC1 [Example 141, 1-(2-{[(1-{[(1,1,1,3,3,3-Hexafluoropropan-2-yl)oxy]carbonyl}-4-methylpiperidin-4-yl)(methyl)amino]methyl}phenyl)cyclopentane-1-carboxylic acid]
### (### is ≥75%) | ### (### is ≥75%) | # (# is ≤25%) | – | CN(Cc1ccc(Cl)cc1C1(C(=O)O)CCCC1)C1(C)CCN(C(=O)OC(C(F)(F)F)C(F)(F)F)CC1 [Example 142, 1-(5-Chloro-2-{[(1-{[(1,1,1,3,3,3-hexafluoropropan-2-yl)oxy]carbonyl}-4-methylpiperidin-4-yl)(methyl)amino]methyl}phenyl)cyclopentane-1-carboxylic acid]
### (### is ≥75%) | ### (### is ≥75%) | # (# is ≤25%) | – | CN(Cc1ccc(F)cc1C1(C(=O)O)CCCC1)C1(C)CCN(C(=O)OC(C(F)(F)F)C(F)(F)F)CC1 [Example 143, 1-(5-Fluoro-2-{[(1-{[(1,1,1,3,3,3-hexafluoropropan-2-yl)oxy]carbonyl}-4-methylpiperidin-4-yl)(methyl)amino]methyl}phenyl)cyclopentane-1-carboxylic acid]
### (### is ≥75%) | ### (### is ≥75%) | # (# is ≤25%) | – | CN(Cc1cccc(F)c1C1(C(=O)O)CCCC1)C1(C)CCN(C(=O)OC(C(F)(F)F)C(F)(F)F)CC1 [Example 144, l-(2-Fluoro-6-{[(1-{[(1.1,1,3,3,3-hexafluoropropan-2-yl)oxy]carbonyl}-4-methylpiperidin-4-yl)(methyl)ainino]methyl}phenyl)cyclopentane-1-carboxylic acid]
### (### is ≥75%) | ### (### is ≥75%) | # (# is ≤25%) | – | CC(C)(C#Cc1ccccc1CN1CCCC12CCN(C(=O)OC(C(F)(F)F)C(F)(F)F)CC2)C(=O)O [Example 145, 4-{2-[(8-{[(1,1,1,3,3,3-Hexafluoropropan-2-yl)oxy]carbonyl}-1,8-diazaspiro[4.5]decan-1-yl)methyl]phenyl}-2,2-dimethylbut-3-ynoic acid]
### (### is ≥75%) | ### (### is ≥75%) | ## (## is between 25 and 75%) | – | CC1(OCc2ccc(Cl)cc2C2(C(=O)O)CCCC2)CCN(C(=O)OC(C(F)(F)F)C(F)(F)F)CC1 [Example 146, 1-(5-Chloro-2-{[(1-{[(1,1,1,3,3,3-hexafluoropropan-2-yl)oxy]carbonyl}-4-methylpiperidin-4-yl)oxy]methyl}phenyl) cyclopentane-1-carboxylic acid]
### (### is ≥75%) | ### (### is ≥75%) | # (# is ≤25%) | – | CC(C)(C#Cc1c(F)cccc1CN1CCCC12CCN(C(=O)OC(C(F)(F)F)C(F)(F)F)CC2)C(=O)O [Example 147, 4-{2-Fluoro-6-[(8-{[(1,1,1,3,3,3-hexafluoropropan-2-yl)oxy]carbonyl}-1,8-diazaspiro[4.5]decan-1-yl)methyl]phenyl}-2,2-dimethylbut-3-ynoic acid]
